Measurements: the NIST ThermoML archive (doi:10.1021/je700344f)
± gives the expanded uncertainty stated by the source.

Experiment: xn = mol fraction of the nth substance listed
Details: 101 kPa, Liquid

CCCCCCO [hexan-1-ol] + C1COCCO1
Details | mass density [kg/m3] | viscosity [mPa·s]
283.15 K, x2 = 0.1835 | 860.24 ± 5.6 | 4.488 ± 0.3
283.15 K, x2 = 0.2675 | 873.31 ± 5.3 | 3.52 ± 0.23
283.15 K, x2 = 0.385 | 896.72 ± 4.7 | 2.785 ± 0.19
283.15 K, x2 = 0.4933 | 916.23 ± 4.2 | 2.324 ± 0.16
283.15 K, x2 = 0.5935 | 938.47 ± 3.7 | 2.007 ± 0.14
283.15 K, x2 = 0.6866 | 957.86 ± 3.2 | 1.815 ± 0.13
283.15 K, x2 = 0.7731 | 981.11 ± 2.6 | 1.691 ± 0.12
283.15 K, x2 = 0.8795 | 1013.54 ± 2.5 | 1.601 ± 0.11
293.15 K, x2 = 0.1835 | 853.33 ± 5.8 | 3.221 ± 0.22
293.15 K, x2 = 0.2675 | 865.64 ± 5.5 | 2.707 ± 0.18
293.15 K, x2 = 0.385 | 889.2 ± 4.9 | 2.184 ± 0.15
293.15 K, x2 = 0.4933 | 903.63 ± 4.6 | 1.845 ± 0.13
293.15 K, x2 = 0.5935 | 929.82 ± 3.9 | 1.626 ± 0.11
293.15 K, x2 = 0.6866 | 951.11 ± 3.4 | 1.554 ± 0.11
293.15 K, x2 = 0.7731 | 973.8 ± 2.8 | 1.395 ± 0.1
293.15 K, x2 = 0.8795 | 1002.74 ± 2.2 | 1.311 ± 0.094
303.15 K, x2 = 0.1835 | 845.02 ± 6 | 2.632 ± 0.18
303.15 K, x2 = 0.2675 | 857.53 ± 5.7 | 2.121 ± 0.15
303.15 K, x2 = 0.385 | 879.87 ± 5.1 | 1.748 ± 0.12
303.15 K, x2 = 0.4933 | 898.36 ± 4.7 | 1.506 ± 0.11
303.15 K, x2 = 0.5935 | 920.31 ± 4.2 | 1.339 ± 0.096
303.15 K, x2 = 0.6866 | 941.43 ± 3.6 | 1.238 ± 0.089
303.15 K, x2 = 0.7731 | 963.84 ± 3.1 | 1.173 ± 0.085
303.15 K, x2 = 0.8795 | 990.21 ± 2.4 | –
313.15 K, x2 = 0.1835 | 836.88 ± 6.2 | 2.285 ± 0.16
313.15 K, x2 = 0.2675 | 849.44 ± 5.9 | 1.705 ± 0.12
313.15 K, x2 = 0.385 | 871.16 ± 5.4 | 1.431 ± 0.1
313.15 K, x2 = 0.4933 | 889.72 ± 4.9 | 1.254 ± 0.091
313.15 K, x2 = 0.5935 | 909.94 ± 4.4 | 1.127 ± 0.082
313.15 K, x2 = 0.6866 | 931.85 ± 3.9 | 1.053 ± 0.078
313.15 K, x2 = 0.7731 | 953.63 ± 3.3 | 1.002 ± 0.074
313.15 K, x2 = 0.8795 | 980.82 ± 2.6 | 0.965 ± 0.072
323.15 K, x2 = 0.1835 | 829.74 ± 6.4 | 1.699 ± 0.12
323.15 K, x2 = 0.2675 | 841.13 ± 6.1 | 1.403 ± 0.1
323.15 K, x2 = 0.385 | 864.56 ± 5.5 | 1.196 ± 0.087
323.15 K, x2 = 0.4933 | 880.42 ± 5.1 | 1.056 ± 0.078
323.15 K, x2 = 0.5935 | 900.9 ± 4.6 | 0.964 ± 0.072
323.15 K, x2 = 0.6866 | 921.84 ± 4.1 | 0.907 ± 0.068
323.15 K, x2 = 0.7731 | 943.38 ± 3.6 | 0.869 ± 0.066
323.15 K, x2 = 0.8795 | 971.57 ± 2.9 | 0.843 ± 0.064
333.15 K, x2 = 0.1835 | 821.17 ± 6.6 | 1.289 ± 0.093
333.15 K, x2 = 0.2675 | 833.54 ± 6.3 | 1.16 ± 0.084
333.15 K, x2 = 0.385 | 856.26 ± 5.7 | 1.012 ± 0.075
333.15 K, x2 = 0.4933 | 869.91 ± 5.4 | 0.903 ± 0.068
333.15 K, x2 = 0.5935 | 890.93 ± 4.9 | 0.839 ± 0.064
333.15 K, x2 = 0.6866 | 911.92 ± 4.4 | 0.792 ± 0.061
333.15 K, x2 = 0.7731 | 933.31 ± 3.8 | 0.763 ± 0.059
333.15 K, x2 = 0.8795 | 958.09 ± 3.2 | 0.742 ± 0.057
343.15 K, x2 = 0.1835 | 815.14 ± 6.8 | 1.074 ± 0.079
343.15 K, x2 = 0.2675 | 824.52 ± 6.5 | 0.975 ± 0.073
343.15 K, x2 = 0.385 | 843.77 ± 6 | 0.863 ± 0.065
343.15 K, x2 = 0.4933 | 862.93 ± 5.6 | 0.786 ± 0.06
343.15 K, x2 = 0.5935 | 881.04 ± 5.1 | 0.732 ± 0.057
343.15 K, x2 = 0.6866 | 905.05 ± 4.5 | 0.748 ± 0.058
343.15 K, x2 = 0.7731 | 923.91 ± 4.1 | 0.678 ± 0.053
343.15 K, x2 = 0.8795 | 947.05 ± 3.5 | 0.662 ± 0.052
